Source: US20230022724A1, “NOVEL IMIDAZOPYRAZINE DERIVATIVES” (Hoffmann-La Roche Inc., priority 2018, published 2023)
Where a name gives a salt, the structure may show the parent alone.

tested on: Acinetobacter baumannii ATCC17978; test: Antimicrobial susceptibility testing: 90% growth inhibitory concentration (IC90) determination; format: cell-based; settings: 90% growth inhibitory concentration, Acinetobacter baumannii ATCC17978, Iso-Sensitest broth, OD 600 nm over 16 h; formate salt; read-out: ATCC17978 IC90
Protocol: The in vitro antimicrobial activity of the compounds was determined according to the following procedure:
The assay used a 10-points Iso-Sensitest broth medium to measure quantitatively the in vitro activity of the compounds against Acinetobacter baumannii ATCC17978 and Acinetobacter baumannii ATCC17961.
Stock compounds in DMSO were serially twofold diluted (e.g. range from 50 to 0.097 μM final concentration) in 384 wells microtiter plates and inoculated with 49 μl the bacterial suspension in Iso-Sensitest medium to have a final cell concentration of ˜5×10^(5) CFU/ml in a final volume/well of 50 ul/well. Microtiter plates were incubated at 35±2° C.
Bacterial cell growth was determined with the measurement of optical density at λ=600 nm each 20 minutes over a time course of 16 h. Growth inhibition was calculated during the logarithmic growth of the bacterial cells with determination of the concentration inhibiting 50% (IC50) and 90% (IC90) of the growth.
Table 1 provides the 90% growth inhibitory concentrations (IC90) in micromoles per liter of the compounds of present invention obtained against the strain Acinetobacter baumannii ATCC17978 and Acinetobacter baumannii ATCC17961.

Row | SMILES | IC90 [nM]
1 | COc1ccc(-c2cnc3c(Nc4ccc(C(=O)N5CCC(C(=O)N6CCNC(C(=O)O)C6)CC5)c(Cl)c4)nccn23)cc1F (stereo not shown) [Example 2, 4-(1-(2-chloro-4-((3-(3-fluoro-4-methoxyphenyl)imidazo [1,2-a]pyrazin-8-yl)amino)benzoyl)piperidine-4-carbonyl) piperazine-2-carboxylic acid, formate salt] | 470

same assay, conditions: 90% growth inhibitory concentration, Acinetobacter baumannii ATCC17978, Iso-Sensitest broth, OD 600 nm over 16 h; read-out: ATCC17978 IC90

Row | SMILES | IC90 [nM]
2 | COc1ccc(-c2cnc3c(Nc4ccc(C(=O)N5CCN(CCN(C)C)CC5)c(Cl)c4)nccn23)cc1F [Example 3, (2-Chloro-4-((3-(3-fluoro-4-methoxyphenyl)imidazo[1,2-a]pyrazin-8-yl)amino)phenyl)(4-(2-(dimethylamino)ethyl)piperazin-1-yl)methanone] | 120
3 | COc1ccc(-c2cnc3c(Nc4ccc(C(=O)N5CCC(C(=O)NCC6CNC6)CC5)c(Cl)c4)nccn23)cc1F [Example 19, N-(azetidin-3-ylmethyl)-1-(2-chloro-4-((3-(3-fluoro-4-methoxyphenyl)imidazo[1,2-a]pyrazin-8-yl)amino)benzoyl)piperidine-4-carboxamide] | 300

same assay, conditions: Acinetobacter baumannii, ATCC17978, 16 h, 90% growth inhibitory concentration, Acinetobacter baumannii ATCC17978, Iso-Sensitest broth, OD 600 nm over 16 h; read-out: ATCC17978 IC90

Row | SMILES | IC90 [nM]
4 | COc1ccc(-c2cnc3c(Nc4ccc(C(=O)N5CCNC(C(=O)O)C5)c(Cl)c4)nccn23)c(F)c1F (stereo not shown) [Example 1, 4-(2-chloro-4-((3-(2,3-difluoro-4-methoxyphenyl)imidazo[1,2-a]pyrazin-8-yl)amino)benzoyl)piperazine-2-carboxylic Acid] | 1900
5 | COc1ccc(-c2cnc3c(Nc4ccc(C(=O)N5CCC(CN)CC5)c(Cl)c4)nccn23)cc1F [Example 4, (4-(Aminomethyl)piperidin-1-yl)(2-chloro-4-((3-(3-fluoro-4-methoxyphenyl)imidazo[1,2-a]pyrazin-8-yl)amino)phenyl)methanone hydrochloride] | 120
6 | NCC1CCN(C(=O)c2ccc(Nc3nccn4c(-c5ccc(OC(F)F)cc5)cnc34)cc2Br)CC1 [Example 5, (4-(aminomethyl)piperidin-1-yl)(2-bromo-4-((3-(4-(difluoromethoxy)phenyl)imidazo[1,2-a]pyrazin-8-yl)amino)phenyl)methanone hydrochloride] | 140
7 | COc1ccc(-c2cnc3c(Nc4ccc(C(=O)N5CCC(CCN)CC5)c(Cl)c4)nccn23)c(F)c1F [Example 7, (4-(2-aminoethyl)piperidin-1-yl)(2-chloro-4-((3-(2,3-difluoro-4-methoxyphenyl)imidazo[1,2-a]pyrazin-8-yl)amino)phenyl)methanone] | 100
8 | COc1ccc(-c2cnc3c(Nc4ccc(C(=O)N5CCC(CN)CC5)c(Cl)c4)nccn23)c(F)c1F [Example 8, (4-(aminomethyl)piperidin-1-yl)(2-chloro-4-((3-(2,3-difluoro-4-methoxyphenyl)imidazo[1,2-a]pyrazin-8-yl)amino)phenyl)methanone] | 170
9 | COc1ccc(-c2cnc3c(Nc4ccc(C(=O)N5CC5)c(Cl)c4)nccn23)c(F)c1F [Example 9, aziridin-1-yl(2-chloro-4-((3-(2,3-difluoro-4-methoxyphenyl)imidazo[1,2-a]pyrazin-8-yl)amino)phenyl)methanone] | 1600
10 | CN(C)CCN1CCN(C(=O)c2ccc(Nc3nccn4c(-c5ccc(OCC#N)c(F)c5F)cnc34)cc2Cl)CC1 [Example 10, 2-(4-(8-((3-chloro-4-(4-(2-(dimethylamino)ethyl)piperazine-1-carbonyl)phenyl)amino)imidazo[1,2-a]pyrazin-3-yl)-2,3-difluorophenoxy)acetonitrile] | 64
11 | N#CCOc1ccc(-c2cnc3c(Nc4ccc(C(=O)N5CCC(c6cnc[nH]6)CC5)c(Cl)c4)nccn23)c(F)c1F [Example 11, 2-[4-[8-[3-chloro-4-[4-(1H-imidazol-5-yl)piperidine-1-carbonyl]anilino]imidazo[1,2-a]pyrazin-3-yl]-2,3-difluoro-phenoxy]acetontrile; 2,2,2-trifluoroacetic acid] | 140
12 | N#CCOc1ccc(-c2cnc3c(Nc4ccc(C(=O)N5CCC(CN)CC5)c(Cl)c4)nccn23)c(F)c1F [Example 12, 2-(4-(8-((4-(4-(aminomethyl)piperidine-1-carbonyl)-3-chlorophenyl)amino)imidazo[1,2-a]pyrazin-3-yl)-2,3-difluorophenoxy)acetonitrile] | 49
13 | N#CCOc1ccc(-c2cnc3c(Nc4ccc(C(=O)N5CCC(c6nnn[nH]6)CC5)c(Cl)c4)nccn23)c(F)c1F [Example 13, 2-[4-[8-[3-chloro-4-[4-(1H-tetrazol-5-yl)piperidine-1-carbonyl]anilino]imidazo[1,2-a]pyrazin-3-yl]-2,3-difluoro-phenoxy]acetonitrile;2,2,2-trifluoroacetic acid] | 280
14 | N#CCOc1cc(Cl)c(-c2cnc3c(Nc4ccc(C(=O)N5CCC(C(=O)N6CCNC(CO)C6)CC5)c(Cl)c4)nccn23)cc1F (stereo not shown) [Example 15, 2-[5-chloro-4-[8-[3-chloro-4-[4-[3-(hydroxymethyl)piperazine-1-carbonyl]piperidine-1-carbonyl]anilino]imidazo[1,2-a]pyrazin-3-yl]-2-fluoro-phenoxy]acetonitrile; 2,2,2-trifluoroacetic] | 110
15 | CNCC(=O)N1CCN(C(=O)c2ccc(Nc3nccn4c(-c5ccc(OC)c(F)c5)cnc34)cc2Cl)CC1 [Example 18, 1-(4-(2-chloro-4-((3-(3-fluoro-4-methoxyphenyl)imidazo[1,2-a]pyrazin-8-yl)amino)benzoyl)piperazin-1-yl)-2-(methylamino)ethan-1-one hydrochloride] | 180
16 | CNCCN1CCN(C(=O)c2ccc(Nc3nccn4c(-c5ccc(OC)c(F)c5)cnc34)cc2Cl)CC1 [Example 20, (2-chloro-4-((3-(3-fluoro-4-methoxyphenyl)imidazo[1,2-a]pyrazin-8-yl)amino)phenyl)(4-(2-(methylamino)ethyl)piperazin-1-yl)methanone] | 130
17 | N#CCOc1ccc(-c2cnc3c(Nc4ccc(C(=O)N5CCC(c6ccncc6)CC5)c(Cl)c4)nccn23)c(F)c1F [Example 21, 2-[4-[8-[3-chloro-4-[4-(4-pyridyl)piperidine-1-carbonyl]anilino]imidazo[1,2-a]pyrazin-3-yl]-2,3-difluoro-phenoxy]acetonitrile] | 870
18 | N#CCOc1ccc(-c2cnc3c(Nc4ccc(C(=O)N5CCN(c6ncccn6)CC5)c(Cl)c4)nccn23)c(F)c1F [Example 22, 2-[4-[8-[3-chloro-4-(4-pyrimidin-2-ylpiperazine-1-carbonyl)anilino]imidazo[1,2-a]pyrazin-3-yl]-2,3-difluoro-phenoxy]acetonitrile] | 690
19 | Cn1cnnc1C1CCN(C(=O)c2ccc(Nc3nccn4c(-c5ccc(OCC#N)c(F)c5F)cnc34)cc2Cl)CC1 [Example 23, 2-[4-[8-[3-chloro-4-[4-(4-methyl-1,2,4-triazol-3-yl)piperidine-1-carbonyl]anilino]imidazo[1,2-a]pyrazin-3-yl]-2,3-difluoro-phenoxy]acetonitrile; 2,2,2-trifluoroacetic acid] | 160
20 | N#CCOc1ccc(-c2cnc3c(Nc4ccc(C(=O)N5CCC(n6cnnc6)CC5)c(Cl)c4)nccn23)c(F)c1F [Example 24, 2-[4-[8-[3-chloro-4-[4-(1,2,4-triazol-4-yl)piperidine-1-carbonyl]anilino]imidazo[1,2-a]pyrazin-3-yl]-2,3-difluoro-phenoxy]acetonitrile] | 150
21 | CN(C)CCNC1CCN(C(=O)c2ccc(Nc3nccn4c(-c5ccc(OCC#N)c(F)c5Cl)cnc34)cc2Cl)CC1 [Example 25, 2-[3-chloro-4-[8-[3-chloro-4-[4-[2-(dimethylamino)ethylamino]piperidine-1-carbonyl]anilino]imidazo[1,2-a]pyrazin-3-yl]-2-fluorophenoxy]acetonitrile; 2,2,2-trifluoroacetic acid] | 79
22 | N#CCOc1ccc(-c2cnc3c(Nc4ccc(C(=O)N5CCN(CCN6CCCC6)CC5)c(Cl)c4)nccn23)c(Cl)c1F [Example 26] | 86

same assay, conditions: Acinetobacter baumannii, ATCC17978, 16 h, read-out: ATCC17978 IC90

Row | SMILES | IC90 [nM]
23 | CN(C)CC1CCN(C(=O)c2ccc(Nc3nccn4c(-c5ccc(OCC#N)c(F)c5Cl)cnc34)cc2Cl)CC1 [Example 6, 2-[3-chloro-4-[8-[3-chloro-4-[4-[(dimethylamino)methyl]piperidine-1-carbonyl]anilino]imidazo[1,2-a]pyrazin-3-yl]-2-fluoro-phenoxy]acetonitrile; formic acid] | 110
24 | CN(C)CC(=O)N1CCN(C(=O)c2ccc(Nc3nccn4c(-c5ccc(OCC#N)c(F)c5F)cnc34)cc2Cl)CC1 [Example 14, 2-[4-[8-[3-chloro-4-[4-[2-(dimethylamino)acetyl]piperazine-1-carbonyl]anilino]imidazo[1,2-a]pyrazin-3-yl]-2,3-difluoro-phenoxy]acetonitrile; 2,2,2-trifluoroacetic acid] | 28
25 | CNCCNC(=O)C1CCN(C(=O)c2ccc(Nc3nccn4c(-c5ccc(OC)c(F)c5)cnc34)cc2Cl)CC1 [Example 16, 1-(2-chloro-4-((3-(3-fluoro-4-methoxyphenyl)imidazo[1,2-a]pyrazin-8-yl)amino)benzoyl)-N-(2-(methylamino)ethyl)piperidine-4-carboxamide hydrochloride] | 100
